Laboratory results from patent US20240109903A1, “SUBSTITUTED HETEROCYCLES FOR TREATING CANCER” (Northwestern University, priority 2022, published 2024).
pIC50: −log10 of the molar value.

Assays:
SR = assay: NCI 60 five-dose screen SR; format: cell-based, human; settings: Homo sapiens, five-dose
A549/ATCC = assay: NCI 60 five-dose screen A549/ATCC; format: cell-based; settings: Homo sapiens, five-dose
HOP-62 = assay: NCI 60 five-dose screen HOP-62; format: cell-based; settings: Homo sapiens, five-dose
NCI-H23 = assay: NCI 60 five-dose screen NCI-H23; format: cell-based; settings: Homo sapiens, five-dose
COLO 205 = assay: NCI 60 five-dose screen COLO 205; format: cell-based; settings: Homo sapiens, five-dose
HCC-2998 = assay: NCI 60 five-dose screen HCC-2998; format: cell-based; settings: Homo sapiens, five-dose
HT29 = assay: NCI 60 five-dose screen HT29; format: cell-based; settings: Homo sapiens, HT-29, five-dose
SW-620 = assay: NCI 60 five-dose screen SW-620; format: cell-based; settings: Homo sapiens, five-dose
SF-539 = assay: NCI 60 five-dose screen SF-539; format: cell-based; settings: Homo sapiens, five-dose
SNB-19 = assay: NCI 60 five-dose screen SNB-19; format: cell-based; settings: Homo sapiens, five-dose
SNB-75 = assay: NCI 60 five-dose screen SNB-75; format: cell-based; settings: Homo sapiens, five-dose
U251 = assay: NCI 60 five-dose screen U251; format: cell-based; settings: Homo sapiens, U-251, five-dose
M14 = assay: NCI 60 five-dose screen M14; format: cell-based; settings: Homo sapiens, five-dose
SK-MEL-2 = assay: NCI 60 five-dose screen SK-MEL-2; format: cell-based; settings: Homo sapiens, five-dose
SK-MEL-28 = assay: NCI 60 five-dose screen SK-MEL-28; format: cell-based; settings: Homo sapiens, five-dose
SK-MEL-5 = assay: NCI 60 five-dose screen SK-MEL-5; format: cell-based; settings: Homo sapiens, five-dose
UACC-257 = assay: NCI 60 five-dose screen UACC-257; format: cell-based; settings: Homo sapiens, five-dose
UACC-62 = assay: NCI 60 five-dose screen UACC-62; format: cell-based; settings: Homo sapiens, five-dose
OVCAR-3 = assay: NCI 60 five-dose screen OVCAR-3; format: cell-based; settings: Homo sapiens, five-dose
OVCAR-4 = assay: NCI 60 five-dose screen OVCAR-4; format: cell-based; settings: Homo sapiens, five-dose
SK-OV-3 = assay: NCI 60 five-dose screen SK-OV-3; format: cell-based; settings: Homo sapiens, five-dose
A498 = assay: NCI 60 five-dose screen A498; format: cell-based; settings: Homo sapiens, five-dose
ACHN = assay: NCI 60 five-dose screen ACHN; format: cell-based; settings: Homo sapiens, five-dose
SN12C = assay: NCI 60 five-dose screen SN12C; format: cell-based; settings: Homo sapiens, five-dose
MDA-MB-231/ATCC = assay: NCI 60 five-dose screen MDA-MB-231/ATCC; format: cell-based; settings: Homo sapiens, five-dose
HS 578T = assay: NCI 60 five-dose screen HS 578T; format: cell-based; settings: Homo sapiens, five-dose
T-47D = assay: NCI 60 five-dose screen T-47D; format: cell-based; settings: Homo sapiens, T47D, five-dose
MDA-MB-468 = assay: NCI 60 five-dose screen MDA-MB-468; format: cell-based; settings: Homo sapiens, five-dose
[1] = read-out: LC50 (the source's name)
[2] = read-out: LC50 (the source's name) (converted)

Compound: FC(F)(F)CN1CCN(CCn2c(C(F)(F)F)cc3c(Cl)ncnc32)CC1 [NUCC-0226683]
- GI50 (SR): 2.14 µM
- pIC50 (SR): 5.45
- CC50 (SR; [1]): ≥ 100 µM
- GI50 (A549/ATCC): 52.5 µM
- pIC50 (A549/ATCC): 4.05
- IC (TGI) (A549/ATCC): 100 µM
- CC50 (A549/ATCC; [2]): ≥ 100 µM
- GI50 (HOP-62): 13.8 µM
- pIC50 (HOP-62): 4.54
- IC (TGI) (HOP-62): 32.4 µM
- CC50 (HOP-62; [2]): 75.9 µM
- GI50 (NCI-H23): 5.89 µM
- pIC50 (NCI-H23): 4.83
- IC (TGI) (NCI-H23): 26.9 µM
- CC50 (NCI-H23; [2]): ≥ 100 µM
- GI50 (COLO 205): 18.6 µM
- pIC50 (COLO 205): 4.47
- IC (TGI) (COLO 205): 45.7 µM
- CC50 (COLO 205; [2]): ≥ 100 µM
- GI50 (HCC-2998): 1.82 µM
- pIC50 (HCC-2998): 5.49
- IC (TGI) (HCC-2998): 3.31 µM
- CC50 (HCC-2998; [2]): 5.89 µM
- GI50 (HT29): 5.5 µM
- pIC50 (HT29): 5.13
- IC (TGI) (HT29): 36.3 µM
- CC50 (HT29; [2]): ≥ 100 µM
- GI50 (SW-620): 4.9 µM
- pIC50 (SW-620): 5.21
- IC (TGI) (SW-620): 19.5 µM
- CC50 (SW-620; [2]): 63.1 µM
- GI50 (SF-539): 12.6 µM
- pIC50 (SF-539): 4.64
- IC (TGI) (SF-539): 28.8 µM
- CC50 (SF-539; [2]): 66.1 µM
- GI50 (SNB-19): 13.2 µM
- pIC50 (SNB-19): 4.62
- IC (TGI) (SNB-19): 26.9 µM
- CC50 (SNB-19; [2]): 53.7 µM
- GI50 (SNB-75): 3.09 µM
- pIC50 (SNB-75): 4.83
- IC (TGI) (SNB-75): 14.1 µM
- CC50 (SNB-75; [2]): 38.9 µM
- GI50 (U251): 2.4 µM
- pIC50 (U251): 5.44
- IC (TGI) (U251): 6.46 µM
- CC50 (U251; [2]): 24 µM
- GI50 (M14): 6.17 µM
- pIC50 (M14): 4.91
- IC (TGI) (M14): 22.9 µM
- CC50 (M14; [2]): 67.6 µM
- GI50 (SK-MEL-2): 15.8 µM
- pIC50 (SK-MEL-2): 4.50
- IC (TGI) (SK-MEL-2): 30.9 µM
- CC50 (SK-MEL-2; [2]): 60.3 µM
- GI50 (SK-MEL-28): 8.13 µM
- pIC50 (SK-MEL-28): 4.78
- IC (TGI) (SK-MEL-28): 37.2 µM
- CC50 (SK-MEL-28; [2]): ≥ 100 µM
- GI50 (SK-MEL-5): 3.72 µM
- pIC50 (SK-MEL-5): 5.21
- IC (TGI) (SK-MEL-5): 13.8 µM
- CC50 (SK-MEL-5; [2]): 37.2 µM
- GI50 (UACC-257): 4.07 µM
- pIC50 (UACC-257): 4.96
- IC (TGI) (UACC-257): 17 µM
- CC50 (UACC-257; [2]): 57.5 µM
- GI50 (UACC-62): 4.68 µM
- pIC50 (UACC-62): 5.00
- IC (TGI) (UACC-62): 18.2 µM
- CC50 (UACC-62; [2]): 47.9 µM
- GI50 (OVCAR-3): 14.5 µM
- pIC50 (OVCAR-3): 4.54
- IC (TGI) (OVCAR-3): 34.7 µM
- CC50 (OVCAR-3; [2]): 83.2 µM
- GI50 (OVCAR-4): 26.9 µM
- pIC50 (OVCAR-4): 4.05
- IC (TGI) (OVCAR-4): 100 µM
- CC50 (OVCAR-4; [2]): ≥ 100 µM
- GI50 (SK-OV-3): 16.2 µM
- pIC50 (SK-OV-3): 4.41
- IC (TGI) (SK-OV-3): 43.7 µM
- CC50 (SK-OV-3; [2]): ≥ 100 µM
- GI50 (A498): 21.4 µM
- pIC50 (A498): 4.00
- IC (TGI) (A498): 57.5 µM
- CC50 (A498; [2]): ≥ 100 µM
- GI50 (ACHN): 12.3 µM
- pIC50 (ACHN): 4.65
- IC (TGI) (ACHN): 100 µM
- CC50 (ACHN; [2]): ≥ 100 µM
- GI50 (SN12C): 7.76 µM
- pIC50 (SN12C): 4.86
- IC (TGI) (SN12C): 22.9 µM
- CC50 (SN12C; [2]): 60.3 µM
- GI50 (MDA-MB-231/ATCC): 1.78 µM
- pIC50 (MDA-MB-231/ATCC): 5.47
- IC (TGI) (MDA-MB-231/ATCC): 4.27 µM
- CC50 (MDA-MB-231/ATCC; [2]): 11.5 µM
- GI50 (HS 578T): 14.1 µM
- pIC50 (HS 578T): 4.00
- IC (TGI) (HS 578T): 60.3 µM
- CC50 (HS 578T; [1]): ≥ 100 µM
- GI50 (T-47D): 17.4 µM
- pIC50 (T-47D): 4.31
- IC (TGI) (T-47D): 63.1 µM
- CC50 (T-47D; [1]): ≥ 100 µM
- GI50 (MDA-MB-468): 2.19 µM
- pIC50 (MDA-MB-468): 5.22
- IC (TGI) (MDA-MB-468): 4.9 µM
- CC50 (MDA-MB-468; [2]): 14.1 µM
